Assay results: patent publication US5656289A, “Pharmaceutical formulations that have a biologically active hydrophilic phase and a chylomicra-containing hydrophobic phase” (priority 1988, dated 1997)
Where “and” joins values, the source holds several entries; their conditions need not be identical. Identical values can stand only once.

Assays:
diabetics [1] = test: Biological Example B: blood sugar in diabetics and one healthy volunteer after oral Example 1 liquid microemulsion, Regular Insulin or Diabenase; conditions: for response of case numbers 1 and 8 (in words): 500 mg tablets per os / 20 units s.c.
Description: An appropriate amount of the microemulsion is given in a liquid form per os together with 10 ml of MCT (MCT is a trade mark for a medium chained triglyceride solution by Mead-Johnson & Co. Evansville, Ind., U.S.A.). […] Each ml of the insulin-containing formulation contains approximately 5 units of bovine insulin.
Twelve diabetics (9 IDDM and 3 NIDDM) and one healthy volunteer participate in the study. […] Each subject is given one unit of insulin per kg body weight in the form described above per os.

diabetics [2] = test: Biological Example A: blood sugar in diabetics and one healthy volunteer after oral Example 5 capsules or s.c. Regular Insulin; format: in vivo, human
[3] = Biological Example A: serum insulin after oral Example 5 capsules or s.c. Regular Insulin (radioimmunoassay); format: in vivo, human
Description: A total of 17 diabetics (8 Insulin-Dependent and 9 Non-Insulin-Dependent diabetics) and one healthy volunteer are fasted overnight. […] Each capsule contains approximately 10 U of bovine insulin and each subject is given, orally, a dose equivalent to approximately one unit per kg body weight, with about 250 ml of water. Blood sugar levels are measured on blood samples obtained by pricking the finger-tip using a HAEMOGLUKOTEST set 20-800R and a REFLOLUX apparatus (Boehringer Mannheim GmbH, West Germany). In a few cases, serum insulin levels are measured using a radioimmunoassay method. For the serum insulin analyses, the serum samples are decanted into TRASYLOL-containing test tubes and stored at -20° to -35° C. until analysed. (TRASYLOL is a trade mark of Bayer for aprotinin proteinase inhibitor.)

[4] = Biological Example B: serum insulin after oral Example 1 emulsion or s.c. Regular Insulin; format: in vivo, human
Description: The results are as follows:

[5] = in vivo; cited from earlier work
[6] = 15 Units s.c., case 18 IDDM, 0 h (baseline)
[7] = 15 Units s.c., case 18 IDDM, 1.0 h
[8] = 15 Units s.c., case 18 IDDM, 2.0 h
[9] = 15 Units s.c., case 12 IDDM, 0 h (baseline)
[10] = 15 Units s.c., case 12 IDDM, 1 h
[11] = 15 Units s.c., case 12 IDDM, 3 h
[12] = 15 Units s.c., case 12 IDDM, 4 h
[13] = 20 Units s.c., case 11 IDDM, 0.5 h
[14] = 20 Units s.c., case 11 IDDM, 3 h
[15] = 20 Units s.c., case 11 IDDM, 4 h

## CCCNC(=O)NS(=O)(=O)c1ccc(Cl)cc1 [Diabenase]
Diabetics [1]; 500 mg per os, case 1 NIDDM, 0 h (baseline)
  Blood Sugar: 186 mg/dL
Diabetics [1]; 500 mg per os, case 8 NIDDM, 1 h
  Blood Sugar: 222 mg/dL
Diabetics [1]; 500 mg per os, case 8 NIDDM, 2 h
  Blood Sugar: 205 mg/dL
Diabetics [1]; 500 mg per os, cases 1 and 8 NIDDM, 3 h
  Blood Sugar: 164 mg/dL and 174 mg/dL
Diabetics [1]
  response of case numbers 1 and 8 (in words): poor responders

## Regular Insulin: Regular Insulin (Green Cross Co. of Seoul, Korea), subcutaneously injected
Diabetics [2]; 5 to 20 units s.c., case nos. 2, 5, 6, 10, 14
  response to subcutaneously injected insulin (in words): respond poorly
Diabetics [2]; 5 units s.c., case 6 NIDDM, 0 h (baseline)
  Blood Sugar: 259 mg/dL
Diabetics [2]; 5 units s.c., case 6 NIDDM, 2 h
  Blood Sugar: 376 mg/dL
Diabetics [2]; 5 units s.c., case 6 NIDDM, 3 h
  Blood Sugar: 298 mg/dL
Diabetics [2]; [6]
  Blood Sugar (Table 3): 171 mg/dL
Diabetics [2]; [7]
  Blood Sugar (Table 3): 152 mg/dL
Diabetics [2]; [8]
  Blood Sugar (Table 3): 122 mg/dL
Diabetics [2]; 15 Units s.c., case 18 IDDM, 3.0 h
  Blood Sugar (Table 3): 207 mg/dL
Diabetics [2]; 15 Units s.c., case 18 IDDM, […]
  Blood Sugar (Table 3): 131 mg/dL
Diabetics [2]; 15 units s.c., case 5 IDDM, 0 h (baseline)
  Blood Sugar: 171 mg/dL
Diabetics [2]; 15 units s.c., case 5 IDDM, 1 h
  Blood Sugar: 196 mg/dL
Diabetics [2]; 15 units s.c., case 5 IDDM, 2 h
  Blood Sugar: 161 mg/dL
Diabetics [2]; 15 units s.c., case 5 IDDM, 3 h
  Blood Sugar: 170 mg/dL
Diabetics [2]; 20 Units s.c., case 10 NIDDM, 0 h (baseline)
  Blood Sugar (Table 3): 157 mg/dL
Diabetics [2]; 20 Units s.c., case 10 NIDDM, 0.5 h
  Blood Sugar (Table 3): 102 mg/dL
Diabetics [2]; 20 Units s.c., case 10 NIDDM, 3.0 h
  Blood Sugar (Table 3): 106 mg/dL
Diabetics [2]; 20 Units s.c., case 10 NIDDM, […]
  Blood Sugar (Table 3): 77 mg/dL
Diabetics [2]; 20 units s.c., poor responders, 0 h (baseline)
  Blood Sugar: 216 mg/dL and 330 mg/dL and 312 mg/dL
Diabetics [2]; 20 units s.c., poor responders, 1 h
  Blood Sugar: 196 mg/dL and 162 mg/dL
Diabetics [2]; 20 units s.c., poor responders, 2 h
  Blood Sugar: 186 mg/dL and 180 mg/dL
Diabetics [2]; 20 units s.c., poor responders, 3 h
  Blood Sugar: 180 mg/dL
[3]; [6]
  Serum Insulin: 10 micro-U/ml
[3]; [7]
  Serum Insulin: 57 micro-U/ml
[3]; [8]
  Serum Insulin: 184 micro-U/ml
[3]; 15 Units s.c., case 18 IDDM, 4.0 h
  Serum Insulin: 64 micro-U/ml
[3]; 20 Units s.c., case 10 NIDDM, 1.0 h
  Serum Insulin: 19 micro-U/ml
[3]; 20 Units s.c., case 10 NIDDM, 2.0 h
  Serum Insulin: 11 micro-U/ml
[4]; [9]
  Serum Insulin: 30 micro-Units/ml
[4]; [10]
  Serum Insulin: 47 micro-Units/ml
[4]; [11]
  Serum Insulin: 112 micro-Units/ml
[4]; [12]
  Serum Insulin: 115 micro-Units/ml
[4]; [13]
  Serum Insulin: 159 micro-Units/ml
[4]; [14]
  Serum Insulin: 78 micro-Units/ml
[4]; [15]
  Serum Insulin: 45 micro-Units/ml
Diabetics [1]
  response of case numbers 1 and 8 (in words): poor responders
Diabetics [1]; [9]
  Blood Sugar (Table 6): 188 mg/dL
Diabetics [1]; [10]
  Blood Sugar (Table 6): 181 mg/dL
Diabetics [1]; [11]
  Blood Sugar (Table 6): 160 mg/dL
Diabetics [1]; [12]
  Blood Sugar (Table 6): 139 mg/dL
Diabetics [1]; 15 Units, case 1 NIDDM, 0 h (baseline)
  Blood Sugar: 201 mg/dL
Diabetics [1]; 15 Units, case 1 NIDDM, 1 h
  Blood Sugar: 198 mg/dL
Diabetics [1]; 15 Units, case 1 NIDDM, 4 h
  Blood Sugar: 185 mg/dL
Diabetics [1]; 20 Units s.c., case 11 IDDM, 0 h (baseline)
  Blood Sugar (Table 6): 308 mg/dL
Diabetics [1]; [13]
  Blood Sugar (Table 6): 181 mg/dL
Diabetics [1]; [14]
  Blood Sugar (Table 6): 87 mg/dL
Diabetics [1]; [15]
  Blood Sugar (Table 6): 115 mg/dL
Diabetics [1]; 20 Units, case 8 NIDDM, 3 h
  Blood Sugar: 194 mg/dL
Diabetics [1]; 20 Units, case 8 NIDDM, 4 h
  Blood Sugar: 176 mg/dL
Diabetics [1]; 20 Units, cases 6 and 8, 0 h (baseline)
  Blood Sugar: 151 mg/dL and 218 mg/dL
Diabetics [1]; 20 Units, cases 6 and 8, 2 h
  Blood Sugar: 124 mg/dL and 200 mg/dL

## Sorbitan monolaurate
[5]
  LD50: 41000 mg/kg

## Sorbitan monooleate
[5]
  LD50: > 40000 mg/kg

## Sorbitan monopalmitate
[5]
  LD50: > 16000 mg/kg

## Sorbitan monostearate
[5]
  LD50: 31000 mg/kg

## Sorbitan trioleate
[5]
  LD50: > 40000 mg/kg

## Sorbitan tristearate
[5]
  LD50: > 16000 mg/kg
